Legend:
[1] = target: T1, human sphingosine-1-phosphate receptor 1 (S1P1) (Homo sapiens (Human), UniProt P21453); assay: Inhibition of cAMP production (HTRF cAMP HiRange), S1P1 CHO-K1 cells; type: cell-based; conditions: for Emax: CHO-K1, efficacy (SPAN) normalized to fingolimod, read-out: hS1P1 cAMP SPAN; for hS1P1 cAMP pEC50: inhibition of cAMP production, S1P1 CHO-K1 cells
Outline: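 CHO-K1 cells stably co-expressing human S1P1 (C-terminal Prolink tag) and EA-β-arrestin2 were grown in AssayComplete Media 6 at 37° C. and 5% CO2, plated, and incubated overnight. Agonist-driven inhibition of intracellular cAMP was read by TR-FRET with the HTRF cAMP HiRange kit on a PheraStar reader. Potency is pEC50, and efficacy (SPAN) is normalized to fingolimod.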
Target sequence in this assay (P21453 whole entry, looked up): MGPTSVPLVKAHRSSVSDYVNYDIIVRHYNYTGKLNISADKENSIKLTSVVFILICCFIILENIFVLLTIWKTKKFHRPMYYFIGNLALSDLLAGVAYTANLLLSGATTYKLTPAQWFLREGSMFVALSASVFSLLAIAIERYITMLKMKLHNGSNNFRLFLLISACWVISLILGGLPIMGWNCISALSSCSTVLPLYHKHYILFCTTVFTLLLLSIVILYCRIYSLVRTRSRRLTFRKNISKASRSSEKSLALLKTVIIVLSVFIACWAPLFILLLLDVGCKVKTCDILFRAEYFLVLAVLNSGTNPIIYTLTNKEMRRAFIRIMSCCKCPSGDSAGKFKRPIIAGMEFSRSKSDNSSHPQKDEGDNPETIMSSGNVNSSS

[2] = target: T1, human sphingosine-1-phosphate receptor 1 (S1P1); assay: β-Arrestin2 recruitment assay (PathHunter), S1P1 CHO-K1 cells; type: cell-based; conditions: for Emax: CHO-K1, efficacy (SPAN) normalized to fingolimod, read-out: hS1P1 B-arrestin2 SPAN; for hS1P1 B-arrestin2 pEC50: β-arrestin2 recruitment, S1P1 CHO-K1 cells
Outline: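 Enzyme-fragment complementation read-out: agonist-driven β-arrestin2 binding to ProLink-tagged human S1P1 in stable CHO-K1 cells restores β-galactosidase, measured 1 h at room temperature after a 60 min 37° C. compound incubation. Potency as pEC50, efficacy relative to fingolimod (SPAN).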
Target sequence in this assay (P21453 whole entry, looked up): as above
Target sequence in this assay (P32121 whole entry partner, looked up): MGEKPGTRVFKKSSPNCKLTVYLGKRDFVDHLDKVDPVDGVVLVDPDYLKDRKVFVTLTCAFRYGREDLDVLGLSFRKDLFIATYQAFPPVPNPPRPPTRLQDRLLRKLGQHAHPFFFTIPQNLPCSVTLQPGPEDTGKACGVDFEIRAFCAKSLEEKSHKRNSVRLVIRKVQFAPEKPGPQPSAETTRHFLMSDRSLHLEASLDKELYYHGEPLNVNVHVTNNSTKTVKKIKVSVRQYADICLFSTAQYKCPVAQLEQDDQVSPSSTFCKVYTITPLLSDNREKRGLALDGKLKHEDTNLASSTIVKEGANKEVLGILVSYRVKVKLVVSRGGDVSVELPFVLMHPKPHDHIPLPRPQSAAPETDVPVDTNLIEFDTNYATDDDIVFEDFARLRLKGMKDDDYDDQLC

Compound | Emax [1] [%] | hS1P1 cAMP pEC50 [1] | Emax [2] [%] | hS1P1 B-arrestin2 pEC50 [2]
COc1cc(C)c2nc(-c3ccc4c(c3)nnn4C(C)C)oc2c1 [Compound 436, 2-(1-isopropyl-1H-benzo[d][1,2,3]triazol-5-yl)-6-methoxy-4-methylbenzo[d]oxazole] | > 75 | >6.5 | > 75 | <5
Cc1ccc2oc(-c3ccc4c(c3)nnn4CC(C)C)nc2c1 [Compound 437, 2-(1-isobutyl-1H-benzo[d][1,2,3]triazol-5-yl)-5-methylbenzo[d]oxazole] | > 75 | >6.5 | < 75 | >5
CC(C)n1nnc2cc(-c3nc(-c4ccccc4N)co3)ccc21 [Compound 438, 2-{2-[1-(propan-2-yl)-1H-1,2,3-benzotriazol-5-yl]-1,3-oxazol-4-yl}aniline] | > 75 | >6.5 | > 75 | >5
Cc1ccncc1-c1noc(-c2ccc3c(c2)nnn3C2CCOCC2)n1 [Compound 439, 5-[3-(4-methylpyridin-3-yl)-1,2,4-oxadiazol-5-yl]-1-(oxan-4-yl)-1H-1,2,3-benzotriazole] | > 75 | <6.5 | > 75 | <5
N#Cc1cc(-c2nc(-c3ccc4sc(N)nc4c3)no2)ccc1NCC1CC1 [Compound 440, 5-(3-(2-aminobenzo[d]thiazol-5-yl)-1,2,4-oxadiazol-5-yl)-2-((cyclopropylmethyl)amino)benzonitrile] | > 75 | >6.5 | > 75 | >5
CC(C)Nc1ccc(-c2nc(-c3ccc4sc(N)nc4c3)no2)cc1C#N [Compound 441, 5-(3-(2-aminobenzo[d]thiazol-5-yl)-1,2,4-oxadiazol-5-yl)-2-(isopropylamino)benzonitrile] | > 75 | >6.5 | > 75 | >5
CCC1(CC)CC(=O)c2cc(-c3nc(-c4ccc5sc(N)nc5c4)no3)ccc2O1 [Compound 446, 6-(3-(2-aminobenzo[d]thiazol-5-yl)-1,2,4-oxadiazol-5-yl)-2,2-diethylchroman-4-one] | < 75 | <6.5 | < 75 | <5
Cc1cccc2oc(-c3ccc4c(c3)nnn4CC(C)C)nc12 [Compound 447, 2-(1-isobutyl-1H-benzo[d][1,2,3]triazol-5-yl)-4-methylbenzo[d]oxazole] |  | >6.5 |  | >5
Cc1ccc2nc(-c3ccc4c(c3)nnn4CC(C)C)oc2c1 [Compound 448, 2-(1-isobutyl-1H-benzo[d][1,2,3]triazol-5-yl)-6-methylbenzo[d]oxazole] |  | <6.5 |  | <5
Cc1cccc2nc(-c3ccc4c(c3)nnn4CC(C)C)oc12 [Compound 449, 2-(1-isobutyl-1H-benzo[d][1,2,3]triazol-5-yl)-7-methylbenzo[d]oxazole] |  | <6.5 |  | <5
COc1cccc2oc(-c3ccc4c(c3)nnn4CC(C)C)nc12 [Compound 450, 2-(1-isobutyl-1H-benzo[d][1,2,3]triazol-5-yl)-4-methoxybenzo[d]oxazole] | > 75 | >6.5 | > 75 | >5
COc1ccc2oc(-c3ccc4c(c3)nnn4CC(C)C)nc2c1 [Compound 451, 2-(1-isobutyl-1H-benzo[d][1,2,3]triazol-5-yl)-5-methoxybenzo[d]oxazole] | < 75 | >6.5 | < 75 | >5
COc1ccc2nc(-c3ccc4c(c3)nnn4CC(C)C)oc2c1 [Compound 452, 2-(1-isobutyl-1H-benzo[d][1,2,3]triazol-5-yl)-6-methoxybenzo[d]oxazole] | > 75 | <6.5 | < 75 | >5
CC(C)Cn1nnc2cc(-c3nc4c(Cl)cccc4o3)ccc21 [Compound 453, 4-chloro-2-(1-isobutyl-1H-benzo[d][1,2,3]triazol-5-yl)benzo[d]oxazole] |  | >6.5 |  | >5
CC(C)Cn1nnc2cc(-c3nc4cccc(Br)c4o3)ccc21 [Compound 454, 7-bromo-2-(1-isobutyl-1H-benzo[d][1,2,3]triazol-5-yl)benzo[d]oxazole] |  | >6.5 |  | >5
CC(C)n1nnc2cc(-c3nc4c(o3)CCc3sccc3-4)ccc21 [Compound 456, 4-[1-(propan-2-yl)-1H-1,2,3-benzotriazol-5-yl]-5-oxa-10-thia-3-azatricyclo[7.3.0.0^2,6]dodeca-1(9),2(6),3,11-tetraene] | > 75 | >6.5 | > 75 | <5

Compound | Emax [1] [%] | hS1P1 cAMP pEC50 [1] | Emax [2] [%] | hS1P1 B-arrestin2 pEC50 [2]
CC(C)n1nnc2cc(-c3nc4c(ccc5sccc54)o3)ccc21 [Compound 457, 4-[1-(propan-2-yl)-1H-1,2,3-benzotriazol-5-yl]-5-oxa-10-thia-3-azatricyclo[7.3.0.0^2,6]dodeca-1(9),2(6),3,7,11-pentaene] | > 75 | >6.5 | > 75 | <5
CC(=O)Nc1ccccc1-c1coc(-c2ccc3c(c2)nnn3C(C)C)n1 [Compound 458, N-(2-{2-[1-(propan-2-yl)-1H-1,2,3-benzotriazol-5-yl]-1,3-oxazol-4-yl}phenyl)acetamide] | < 75 | <6.5 | < 75 | <5
CC(C)n1nnc2cc(-c3nc(-c4cccs4)co3)ccc21 [Compound 459, 1-(propan-2-yl)-5-[4-(thiophen-2-yl)-1,3-oxazol-2-yl]-1H-1,2,3-benzotriazole] | > 75 | <6.5 | > 75 | <5
CC(C)(O)Cn1nnc2cc(-c3nc(-c4ccncc4C(F)(F)F)no3)ccc21 [Compound 460, 2-methyl-1-(5-{3-[3-(trifluoromethyl)pyridin-4-yl]-1,2,4-oxadiazol-5-yl}-1H-1,2,3-benzotriazol-1-yl)propan-2-ol] | > 75 | <6.5 | > 75 | <5
CC(C)Cn1nnc2cc(-c3nc4c(Br)cccc4o3)ccc21 [Compound 461, 4-bromo-2-(1-isobutyl-1H-benzo[d][1,2,3]triazol-5-yl)benzo[d]oxazole] | > 75 | <6.5 | > 75 | <5
CC(C)n1nnc2cc(-c3nc4c(o3)COc3ccccc3-4)ccc21 [Compound 462, 5-{4H-chromeno[4,3-d][1,3]oxazol-2-yl}-1-(propan-2-yl)-1H-1,2,3-benzotriazole] | > 75 | >6.5 | > 75 | <5
CCC1(CC)CC(=O)c2cc(-c3nc(-c4ccc[nH]4)no3)ccc2O1 [Compound 464, 6-(3-(1H-pyrrol-2-yl)-1,2,4-oxadiazol-5-yl)-2,2-diethylchroman-4-one] |  | >6.5 |  | <5
CCC1(CC)CC(=O)c2cc(-c3nc(-c4ccco4)no3)ccc2O1 [Compound 465, 2,2-diethyl-6-(3-(furan-2-yl)-1,2,4-oxadiazol-5-yl)chroman-4-one] |  | >6.5 |  | >5
CCC1(CC)CC(=O)c2cc(-c3nc(-c4cnc[nH]4)no3)ccc2O1 [Compound 466, 6-(3-(1H-imidazol-5-yl)-1,2,4-oxadiazol-5-yl)-2,2-diethylchroman-4-one] |  | <6.5 |  | <5
CCC1(CC)CC(=O)c2cc(-c3nc(-c4cccs4)no3)ccc2O1 [Compound 467, 2,2-diethyl-6-(3-(thiophen-2-yl)-1,2,4-oxadiazol-5-yl)chroman-4-one] |  | >6.5 |  | >5
CCC1(CC)CC(=O)c2cc(-c3nc(-c4ccsc4)no3)ccc2O1 [Compound 468, 2,2-diethyl-6-(3-(thiophen-3-yl)-1,2,4-oxadiazol-5-yl)chroman-4-one] |  | >6.5 |  | >5
CCC1(CC)CC(=O)c2cc(-c3nc(-c4ccn[nH]4)no3)ccc2O1 [Compound 470, 6-(3-(1H-pyrazol-5-yl)-1,2,4-oxadiazol-5-yl)-2,2-diethylchroman-4-one] |  | <6.5 |  | <5
CC(C)Nc1ccc(-c2nnc(-c3ccc4c(c3)CCC(=O)N4)o2)cc1C#N [Compound 473, 5-[5-(2-oxo-1,2,3,4-tetrahydroquinolin-6-yl)-1,3,4-oxadiazol-2-yl]-2-[(propan-2-yl)amino]benzonitrile] |  | >6.5 |  | >5
CC(C)n1nnc2cc(-c3nc(-c4ccccn4)co3)ccc21 [Compound 474, 1-(propan-2-yl)-5-[4-(pyridin-2-yl)-1,3-oxazol-2-yl]-1H-1,2,3-benzotriazole] | > 75 | <6.5 | > 75 | <5
N#Cc1cc(-c2nnc(-c3ccc4c(c3)CCC(=O)N4)o2)ccc1NCC1CC1 [Compound 475, 2-[(cyclopropylmethyl)amino]-5-[5-(2-oxo-1,2,3,4-tetrahydroquinolin-6-yl)-1,3,4-oxadiazol-2-yl]benzonitrile] |  | >6.5 |  | >5

Source: patent publication US11912693B2, “Compounds for modulating S1P1 activity and methods of using the same” (TREVENA, INC., priority 2017, dated 2024)
